Entries after “also recorded” stand apart in the source; their conditions may differ.
Legend:
[1] = test system: patients with Familial Adenomatous Polyposis (FAP); test: Randomized, double-blind phase III trial in FAP patients: FAP-related events (efficacy); assay type: in vivo, human; details: for Mean time to first FRE: Kaplan-Meier estimated; for Hazard ratio: combination versus the arm named
From the text: Patients were stratified by anatomic site with highest polyp burden and surgical status: (a) post colectomy with rectal or ileal pouch polyposis (longest projected time to first FRE); (b) with duodenal polyposis (intermediate projected time to first FRE); and (c) pre-colectomy (shortest projected time to first FRE) prior to randomization to minimize treatment imbalance.
A stratified randomization procedure was used with stratification based on FAP-related time-to-first-event prognosis (see FIG. 1). The event prognosis groups were represented by 1) best (i.e., longest projected time to first FAP-related event)—rectal/pouch polyposis (Post-colectomy (≥3 years S/P IRA or IPAA with >10 polyps; any polyps >5 mm excised at baseline)), 2) intermediate—duodenal polyposis (Spigelman Stage 3 or 4 or Spigelman Stage 3 or 4 down-staged to Spigelman 1 or 2 within the past 6 months), and 3) worst—pre-colectomy. If a subject has two or more of these disease sites, the most severe prognosis stratum was assigned for randomization (e.g. worst>intermediate>best). Since an individual may have more than one disease site involved, the trial assessed time to any defined FAP-related event in the subject as a whole. In order to minimize potential treatment arm imbalance a centralized randomization process was used to balance among treatment groups within prognostic strata.
Lower GI Endoscopy: Patients were evaluated via colonoscopy, flexible or rigid procto-sigmoidoscopy during the screening phase. Biopsies, ablations, and snare excisions at baseline were performed per the clinician's standard of care. If considered eligible based on inclusion criteria, a grossly normal mucosa biopsy was obtained for baseline polyamine measurement. Still and video documentation of the colon (vide infra) or the residual rectum or entire pouch was also obtained for archiving. Polyp size was determined by visual comparison with biopsy forceps that can measure 5.0-5.5 mm in the fully open position. All randomized patients with an intact colon or rectum/pouch had baseline and on-study lower GI endoscopy procedures as part of this trial.
Upper GI Endoscopy: The duodenum was evaluated by forward-viewing and/or side-viewing gastroscopes (with still and video documentation with closed and open biopsy forceps near mucosa). All randomized patients with a duodenum had baseline and on-study UGI endoscopy as part of this trial. Subjects stratified to the duodenal group must have duodenal biopsies of all polyps 1 cm or larger to determine HGD and histology required for determining Stage 3 or 4 Spigelman status.
FAP-related primary events by disease site were as follows: • 1. Pre-operative, intact colon: Disease progression indicating need for colectomy with IRA or total procto-colectomy • 2. Retained rectum or pouch events include one or more of the following: • a) Excisional intervention by endoscopic snare or trans-anal excision to remove any polyp ≥10 mm in size (per pathology report) and/or pathologic evidence of high grade dysplasia. • b) Disease progression indicating need for proctectomy or pouch resection • 3. Duodenal disease includes the following: • a) Progression in Spigelman Stage to more advanced stage (Stage 2, 3 or 4) • b) Disease progression indicating need for excisional intervention (sub-mucosal resection, trans-duodenal excision, ampullectomy, duodenectomy, Whipple procedure) • c) Development of cancer
At six month intervals (+/−two weeks), subjects underwent repeat upper and lower endoscopy. […] Video recordings of all procedures and qualitative assessments were compared to the exam 6 months prior.

[2] = cited from earlier work
[3] = human, in vivo; cited from earlier work
[4] = test system: patients with Familial Adenomatous Polyposis (FAP); test: Randomized, double-blind phase III trial in FAP patients: safety (adverse events); details: for Treatment-related serious adverse events: 1 patient each
[5] = in vivo; cited from earlier work
[6] = test system: patients with FAP; details: cited from earlier work
[7] = disease site colon, number of subjects
[8] = disease site duodenum, number of subjects
[9] = disease site rectum and pouch, number of subjects
[10] = post-colectomy, rectal/ileal pouch stratum

Compound: CC1=C(CC(=O)O)c2cc(F)ccc2/C1=C\c1ccc([S+](C)[O-])cc1 (stereo not shown) [Sulindac, (Z)-5-fluoro-2-methyl-1-((4-(methylsulfinyl)phenyl)methylene)-1H-indene-3-acetic acid]
- Kaplan-Meier estimated mean time to first FRE ([1]; ITT population): 23.6 months
- Event-free rate ([1]; ITT population, cumulative): 63.1%
- FREs occurred, percent of patients ([1]; ITT population, cumulative): 37.9%
- Surgical FAP-related events, Colon: Event-free proportion ([1]; disease site colon): 69.2%
- Surgical FAP-related events, Colon: Colectomy [1, 7]: 2
- Surgical FAP-related events, Colon: Disease progression [1, 7]: 4
- Surgical FAP-related events, Duodenum: Event-free proportion ([1]; disease site duodenum): 70.2%
- Surgical FAP-related events, Duodenum: Disease progression [1, 8]: 10
- Surgical FAP-related events, Duodenum: Excisional intervention [1, 8]: 6
- Surgical FAP-related events, Duodenum: Spigelman stage progression [1, 8]: 7
- Surgical FAP-related events, Rectum and Pouch: Event-free proportion ([1]; disease site rectum and pouch): 95%
- Surgical FAP-related events, Rectum and Pouch: Disease progression [1, 9]: 2
- Surgical FAP-related events, Rectum and Pouch: Proctectomy/pouch resection [1, 9]: 1
- FRE type: Duodenal excision ([1]; duodenal polyposis stratum): 6
- FRE type: Duodenal excision and Spigelman stage progression ([1]; duodenal polyposis stratum): 2
- FRE type: Duodenal excision and ≥ 10 mm polyp removed in rectum/pouch ([1]; duodenal polyposis stratum): 1
- FRE type: Proctocolectomy and ≥ 10 mm polyp removed in rectum/pouch ([1]; duodenal polyposis stratum): 1
- FRE type: Spigelman stage progression ([1]; duodenal polyposis stratum): 3
- FRE type: ≥10 mm polyp removed in rectum/pouch ([1]; duodenal polyposis stratum): 1
- Patients with FRE, % ([1]; duodenal polyposis stratum): (41.2) %
- Total FRE ([1]; duodenal polyposis stratum): 14
- Mean time to first FRE ([1]; duodenal polyposis stratum): 21.1 months
- Risk reduction versus combination ([1]; duodenal polyposis stratum, combination relative to the arm named): 29%
- Hazard ratio ([1]; duodenal polyposis stratum): 0.716
- Patients with FRE, % ([1]; duodenal polyposis stratum, listed as sulindac): 41.2%
- Progression of lower gastrointestinal polyposis: surgeries ([1]; human, in vivo): 3
- Patients with duodenal polyposis progression who underwent duodenal excisional procedures ([1]; number of patients): 6
- FRE type: Pouch resection [1, 10]: 1
- FRE type: ≥10 mm polyp removed in rectum/pouch [1, 10]: 1
- Patients with FRE, % [1, 10]: (18.2) %
- Total FRE [1, 10]: 2
- Mean time to first FRE [1, 10]: 27.5 months
- Risk reduction versus combination ([1]; post-colectomy, rectal/ileal pouch stratum, combination relative to the arm named): 16%
- Hazard ratio [1, 10]: 0.841
- Patients with FRE, % ([1]; post-colectomy, rectal/ileal pouch stratum, listed as sulindac): 18.2%
- FRE type: Colectomy ([1]; pre-colectomy stratum): 4
- FRE type: Duodenal excision and Spigelman stage progression ([1]; pre-colectomy stratum): 1
- FRE type: Spigelman stage progression ([1]; pre-colectomy stratum): 1
- Patients with FRE, % ([1]; pre-colectomy stratum): (46.2) %
- Total FRE ([1]; pre-colectomy stratum): 6
- Mean time to first FRE ([1]; pre-colectomy stratum): 25.2 months
- Hazard ratio ([1]; pre-colectomy stratum): 0.299
- Patients with FRE, % ([1]; pre-colectomy stratum, listed as sulindac): 46.2%
- Risk reduction versus combination ([1]; pre-colectomy stratum, risk reduction for FRE of the combination relative to the arm named): 70%
- Event Rate of FAP-related Surgery Events in Lower GI ([1]; subjects with lower GI anatomy): 6/58 (10%)
- Lower GI surgery events: Need colectomy ([1]; subjects with lower GI anatomy): 4
- Lower GI surgery events: Need pouch resection ([1]; subjects with lower GI anatomy): 1
- Lower GI surgery events: Need proctectomy ([1]; subjects with lower GI anatomy): 1
- Lower GI surgery events: Total Surgical Events ([1]; subjects with lower GI anatomy): 6
- Progression of lower gastrointestinal polyposis: polypectomies ([1]; ≥10 mm in size and/or high grade dysplasia): 4
- Time to peak plasma levels ([2]; oral, fasting patients): about 2 hours
- Drug absorbed after oral administration ([2]; oral): about 90%
- Mild gastrointestinal effects, percent of patients [3]: ~20%
- Skin rash and pruritus, percent of patients [3]: 5%
- Discontinuations due to AEs, number of patients [4]: 6 patients
- Discontinuations due to AEs, percent of patients [4]: 10.3%
- TRAE reported by % of patients [4]: 73.7%
- Treatment-related hearing adverse events: Hearing loss N [4]: 2
- Treatment-related hearing adverse events: Tinnitus N [4]: 5
- Treatment-related serious adverse events [4]: Severe Nausea; also recorded: Deep Vein Thrombosis; also recorded: Worsening of Depression; also recorded: Spontaneous Abortion
- Treatment-related serious adverse events ([4]; listed as sulindac): severe nausea, deep vein thrombosis, worsening of depression, and spontaneous abortion
- Death ([4]; safety population): 0 n (%)
- Number of patients discontinuing due to a TRAE ([4]; safety population): 5 (8.8) n (%)
- Number of patients reporting TEAEs ([4]; safety population): 50 (87.7) n (%)
- Number of patients reporting TEAEs ≥ Grade 3 ([4]; safety population): 12 (21.1) n (%)
- Number of patients reporting TRAE: Abdominal distension ([4]; safety population): 3 (5.3) n (%)
- Number of patients reporting TRAE: Abdominal pain ([4]; safety population): 4 (7.0) n (%)
- Number of patients reporting TRAE: Alopecia ([4]; safety population): 3 (5.3) n (%)
- Number of patients reporting TRAE: Decreased appetite ([4]; safety population): 4 (7.0) n (%)
- Number of patients reporting TRAE: Depression ([4]; safety population): 3 (5.3) n (%)
- Number of patients reporting TRAE: Diarrhea ([4]; safety population): 3 (5.3) n (%)
- Number of patients reporting TRAE: Dizziness ([4]; safety population): 2 (3.5) n (%)
- Number of patients reporting TRAE: Dyspepsia ([4]; safety population): 4 (7.0) n (%)
- Number of patients reporting TRAE: Fatigue ([4]; safety population): 4 (7.0) n (%)
- Number of patients reporting TRAE: Flatulence ([4]; safety population): 3 (5.3) n (%)
- Number of patients reporting TRAE: Frequent bowel movements ([4]; safety population): 1 (1.8) n (%)
- Number of patients reporting TRAE: Gastritis erosive ([4]; safety population): 0 n (%)
- Number of patients reporting TRAE: Headache ([4]; safety population): 7 (12.3) n (%)
- Number of patients reporting TRAE: Hematochezia ([4]; safety population): 2 (3.5) n (%)
- Number of patients reporting TRAE: Nausea ([4]; safety population): 9 (15.8) n (%)
- Number of patients reporting TRAE: Pruritus ([4]; safety population): 4 (7.0) n (%)
- Number of patients reporting TRAE: Rash ([4]; safety population): 0 n (%)
- Number of patients reporting TRAE: Rectal hemorrhage ([4]; safety population): 4 (7.0) n (%)
- Number of patients reporting TRAE: Thrombocytopenia ([4]; safety population): 3 (5.3) n (%)
- Number of patients reporting TRAE: Tinnitus ([4]; safety population): 5 (8.8) n (%)
- Number of patients reporting TRAE: Upper abdominal pain ([4]; safety population): 1 (1.8) n (%)
- Number of patients reporting TRAE: Vomiting ([4]; safety population): 4 (7.0) n (%)
- Number of patients reporting TRAEs ([4]; safety population): 42 (73.7) n (%)
- Number of patients reporting TRSAEs ([4]; safety population): 4 (7.0) n (%)

Compound: Cc1ccc(-c2cc(C(F)(F)F)nn2-c2ccc(S(N)(=O)=O)cc2)cc1 [celecoxib, 4-[5-(4-Methylphenyl)-3-(trifluoromethyl)pyrazol-1-yl]benzenesulfonamide]
- Increase in rates of heart and blood vessel disease [5]: 30%
- Risk of gastrointestinal side effects [5]: greater than 80%
- Reduction of measures of global tumor burden from baseline [6]: 30%
- Reduction of the number of colonic adenomas [6]: 1%

Compound: CSc1ccc(/C=C2/C(C)=C(CC(=O)O)c3cc(F)ccc32)cc1 [sulfide metabolite]
- Mean half-life ([2]; in vivo): 16.4 h

From US10945981B2, “Methods for treating familial adenomatous polyposis” (CANCER PREVENTION PHARMACEUTICALS, INC., priority 2019, dated 2021)
